Reference: BindingDB's records for PubMed 8996189 (Pfizer, 1997)

Experiments:
Adenosine receptor A1 [1] = target: T1, Adenosine receptor A1 (Oryctolagus cuniculus, UniProt P34970)
T1 sequence (P34970 whole entry): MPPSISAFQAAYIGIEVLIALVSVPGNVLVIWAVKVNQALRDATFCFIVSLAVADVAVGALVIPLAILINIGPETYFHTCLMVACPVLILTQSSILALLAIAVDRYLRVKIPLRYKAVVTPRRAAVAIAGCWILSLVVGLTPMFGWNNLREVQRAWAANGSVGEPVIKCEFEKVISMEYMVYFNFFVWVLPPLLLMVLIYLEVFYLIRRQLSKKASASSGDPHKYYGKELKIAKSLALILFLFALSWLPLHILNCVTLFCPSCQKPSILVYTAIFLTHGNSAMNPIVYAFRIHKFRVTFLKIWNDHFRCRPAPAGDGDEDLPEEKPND

Adenosine receptor A3 [2] = target: T2, Adenosine receptor A3 (Oryctolagus cuniculus, UniProt O02667)
T2 sequence (O02667 whole entry): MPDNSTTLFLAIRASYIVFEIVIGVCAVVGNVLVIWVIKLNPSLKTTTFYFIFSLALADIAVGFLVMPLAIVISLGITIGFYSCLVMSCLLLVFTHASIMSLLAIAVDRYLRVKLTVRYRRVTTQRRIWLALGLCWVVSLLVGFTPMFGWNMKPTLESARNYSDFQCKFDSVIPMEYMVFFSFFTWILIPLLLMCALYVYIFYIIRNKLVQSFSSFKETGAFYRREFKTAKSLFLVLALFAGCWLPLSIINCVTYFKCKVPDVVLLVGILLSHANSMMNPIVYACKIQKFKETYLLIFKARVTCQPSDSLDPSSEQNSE

Adenosine receptor A1 [3] = target: T3, Adenosine receptor A1 (Homo sapiens, UniProt P30542)
T3 sequence (P30542 whole entry): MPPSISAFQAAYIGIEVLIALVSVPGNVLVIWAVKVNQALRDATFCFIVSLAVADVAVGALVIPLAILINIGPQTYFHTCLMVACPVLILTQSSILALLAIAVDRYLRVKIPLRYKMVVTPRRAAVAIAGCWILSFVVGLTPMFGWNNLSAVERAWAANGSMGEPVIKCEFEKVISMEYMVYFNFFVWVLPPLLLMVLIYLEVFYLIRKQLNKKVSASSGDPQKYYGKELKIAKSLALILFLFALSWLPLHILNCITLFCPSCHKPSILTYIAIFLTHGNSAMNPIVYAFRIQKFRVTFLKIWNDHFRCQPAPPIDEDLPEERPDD

Adenosine receptor A3 [4] = target: T4, Adenosine receptor A3 (Homo sapiens, UniProt P0DMS8)
T4 sequence (P0DMS8 whole entry): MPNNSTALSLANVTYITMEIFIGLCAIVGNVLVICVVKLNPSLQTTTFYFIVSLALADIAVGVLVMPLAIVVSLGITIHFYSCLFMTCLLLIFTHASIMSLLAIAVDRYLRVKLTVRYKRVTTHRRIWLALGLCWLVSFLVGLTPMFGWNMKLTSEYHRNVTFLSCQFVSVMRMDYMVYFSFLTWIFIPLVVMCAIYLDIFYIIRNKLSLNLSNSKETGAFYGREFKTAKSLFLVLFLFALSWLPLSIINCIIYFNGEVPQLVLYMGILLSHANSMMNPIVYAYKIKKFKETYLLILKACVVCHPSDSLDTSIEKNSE

Adenosine receptor A3 [5] = target: T5, Adenosine receptor A3 (Ovis aries, UniProt P35342)
T5 sequence (P35342 whole entry): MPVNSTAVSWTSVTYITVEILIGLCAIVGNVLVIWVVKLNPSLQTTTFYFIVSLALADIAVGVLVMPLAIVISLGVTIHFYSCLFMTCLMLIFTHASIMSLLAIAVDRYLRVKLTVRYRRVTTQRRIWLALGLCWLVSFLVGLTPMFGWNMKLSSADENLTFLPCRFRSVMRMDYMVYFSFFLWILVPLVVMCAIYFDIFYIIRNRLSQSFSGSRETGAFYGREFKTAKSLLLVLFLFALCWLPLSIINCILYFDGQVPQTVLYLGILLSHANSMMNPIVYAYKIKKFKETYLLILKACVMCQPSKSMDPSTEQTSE

Row | SMILES | Ki (Adenosine receptor A1 [1]) [nM] | Ki (Adenosine receptor A3 [2]) [nM] | Ki (Adenosine receptor A1 [3]) [nM] | Ki (Adenosine receptor A3 [4]) [nM] | Ki (Adenosine receptor A3 [5]) [nM]
1 | CCNC(=O)[C@H]1O[C@@H](n2cnc3c(N)ncnc32)[C@H](O)[C@@H]1O | 2 | 27 |  |  | 
2 | OC[C@H]1O[C@@H](n2cnc3c(NC4CCCC4)ncnc32)[C@H](O)[C@@H]1O |  | 49 |  |  | 
3 | CNC(=O)C1OC(n2cnc3c(NCc4cccc(I)c4)ncnc32)C(O)C1O (stereo not drawn) [3,4-dihydroxy-5-(6-{[(3-iodophenyl)methyl]amino}-9H-purin-9-yl)-N-methyloxolane-2-carboxamide] | 30 |  |  |  | 
4 | Cn1c(=O)c2[nH]c(-c3ccc(S(=O)(=O)O)cc3)nc2n(C)c1=O [4-(1,3-Dimethyl-2,6-dioxo-2,3,6,7-tetrahydro-1H-purin-8-yl)-benzenesulfonic acid] |  | > 10000 |  |  | 
5 | Nc1ccc(CCNc2ncnc3c2ncn3C2OC(CO)C(O)C2O)cc1 (stereo not drawn) [ChEMBL_198532] | 6 | 47 |  |  | 
6 | CCCn1c(=O)c2[nH]c(C3CCCC3)nc2n(CCC)c1=O [DPCPX] |  | 1120 |  |  | 
7 | Nc1ccc(CNc2ncnc3c2ncn3[C@@H]2O[C@H](CO)[C@@H](O)[C@H]2O)cc1I [IABA] | 4 | 5 |  |  | 
8 | CCCn1c(=O)c2[nH]c(-c3ccc(OCC(=O)NCCN)cc3)nc2n(CCC)c1=O [N-(2-Amino-ethyl)-2-[4-(2,6-dioxo-1,3-dipropyl-2,3,6,9-tetrahydro-1H-purin-8-yl)-phenoxy]-acetamide] | 5 | 329 |  |  | 
9 | CCCn1c(=O)c2[nH]c(-c3ccc(C=CC(=O)O)cc3)nc2n(CCC)c1=O [NSC_129447] | 3 | 746 | 120 | 40 | 21
10 | CC(Cc1ccccc1)Nc1ncnc2c1ncn2C1OC(CO)C(O)C1O (stereo not drawn) [R-N6-(2-phenylisopropyl) adenosine] |  | 49 |  |  | 
